According to PubChem BioAssay AID1259408 (Genetic Toxicology Data Bank (GENE-TOX), 2018):
Activity calls are given as the source filed them. No rule for the calls is given here.

Tested on: GENE-TOX genotoxicity assays, various organisms and cells
Experiment: GENE-TOX mutagenicity studies
Details: for call: Assay Type: In vivo carcinogenicity studies, Assay Code: CCG+
[1] = Species/Cell Type: Chinese hamster lung (V79) cells, Assay Type: Forward gene mutation at the HPRT or ouabain locus, Assay Code: V79+, Evaluation Type: Evaluation A (Pre-1980)
[2] = Species/Cell Type: Drosophila melanogaster, Assay Type: Sex-linked recessive lethal gene mutation, Assay Code: SRLT, Evaluation Type: Evaluation A (Pre-1980)
[3] = Species/Cell Type: Human, Assay Type: Sister-chromatid exchange (SCE) in vitro, Assay Code: SC1+, Evaluation Type: Evaluation B (Post-1980)
[4] = Species/Cell Type: Nonhuman, Evaluation Type: Evaluation A (Pre-1980)
[5] = Species/Cell Type: Salmonella typhimurium (one or more of the five standard strains: TA98, TA100, TA1535, TA1537, and TA1538), Assay Type: Histidine reverse gene mutation, Ames assay, Assay Code: SAL+, Evaluation Type: Evaluation A (Pre-1980)
[6] = Species/Cell Type: Saccharomyces cerevisiae, Assay Type: Mitotic recombination or gene conversion, Assay Code: YEH-, Evaluation Type: Evaluation A (Pre-1980)
[7] = Species/Cell Type: Salmonella typhimurium (one or more of the five standard strains: TA98, TA100, TA1535, TA1537, and TA1538), Assay Type: Histidine reverse gene mutation, Ames assay, Assay Code: SALT, Evaluation Type: Evaluation A (Pre-1980)
[8] = Species/Cell Type: Nonhuman, Assay Type: Sister-chromatid exchange (SCE) in vitro, Assay Code: SC2+, Evaluation Type: Evaluation B (Post-1980)
[9] = Species/Cell Type: Drosophila melanogaster, Assay Type: Sex-linked recessive lethal gene mutation, Assay Code: SRL+, Evaluation Type: Evaluation A (Pre-1980)
[10] = Species/Cell Type: Mammalian polychromatic erythrocytes, Assay Type: Micronucleus test, chromosome aberrations, Assay Code: MNTT, Evaluation Type: Evaluation B (Post-1980)
[11] = Species/Cell Type: Nonhuman, Assay Type: Sister-chromatid exchange (SCE) in vitro, Assay Code: SC2+D, Dose Response: With dose response, Evaluation Type: Evaluation B (Post-1980)
[12] = Species/Cell Type: Allium cepa, Assay Type: Chromosome aberrations, Assay Code: ALC+D, Dose Response: With dose response, Evaluation Type: Evaluation A (Pre-1980)

CC(=O)N(O)c1ccc2c(c1)Cc1ccccc1-2
mutagenic call [1]: active; positive | mutagenic call (Species/Cell Type: Chinese hamster ovary (CHO) cells, Assay Type: Forward gene mutation at the HPRT locus, Assay Code: CHO+, Evaluation Type: Evaluation B (Post-1980)): active; positive | mutagenic call [2]: no conclusion | mutagenic call (Species/Cell Type: Escherichia coli polA (W3119 vs P3478), Assay Type: Rec-assay, DNA effects (bacterial DNA repair), Assay Code: RE1+, Evaluation Type: Evaluation A (Pre-1980)): active; positive | mutagenic call (Species/Cell Type: Fischer rat embryo (RLV/1706) cells, Assay Type: Cell transformation, viral enhanced, Assay Code: CTR+, Evaluation Type: Evaluation A (Pre-1980)): active; positive | mutagenic call (Species/Cell Type: Human diploid fibroblasts, Assay Type: Unscheduled DNA synthesis (UDS) in vitro, DNA effects, Assay Code: UDH+D, Dose Response: With dose response, Evaluation Type: Evaluation A (Pre-1980)): active; positive | mutagenic call (Species/Cell Type: Human lymphocytes, Assay Type: Sister-chromatid exchange (SCE) in vitro, Assay Code: SCLT, Evaluation Type: Evaluation A (Pre-1980)): no conclusion | mutagenic call [3]: active; positive | mutagenic call (Species/Cell Type: Human, Assay Type: Sister-chromatid exchange (SCE) in vitro, Assay Code: SC1T, Evaluation Type: Evaluation A (Pre-1980)): no conclusion | mutagenic call (Species/Cell Type: Mouse (BALB/c-3T3) cells, Assay Type: Cell transformation, Assay Code: CTB+D, Dose Response: With dose response, Evaluation Type: Evaluation A (Pre-1980)): active; positive | mutagenic call (Species/Cell Type: Mouse embryo (AKR/ME) cells, Assay Type: Cell transformation, Assay Code: CTK-, Evaluation Type: Evaluation A (Pre-1980)): inactive; negative | mutagenic call (Species/Cell Type: Neurospora crassa, Assay Type: Reverse gene mutation, Assay Code: NER+, Evaluation Type: Evaluation A (Pre-1980)): active; positive | call [4]: active; positive | mutagenic call (Species/Cell Type: Nonhuman, Assay Type: Sister-chromatid exchange (SCE) in vitro, Assay Code: SC2+D, Dose Response: With dose response, Evaluation Type: Evaluation A (Pre-1980)): active; positive | mutagenic call (Species/Cell Type: Rat primary hepatocytes, Assay Type: Unscheduled DNA synthesis (UDS) in vitro, DNA effects, Assay Code: UDP+, Evaluation Type: Evaluation A (Pre-1980)): active; positive | mutagenic call (Species/Cell Type: Saccharomyces cerevisiae, Assay Type: Mitotic recombination or gene conversion, Assay Code: YEC+, Evaluation Type: Evaluation A (Pre-1980)): active; positive | mutagenic call [5]: active; positive | mutagenic call (Species/Cell Type: Syrian hamster embryo (SHE) cells, Assay Type: Cell transformation, clonal assay, Assay Code: CTC+D, Dose Response: With dose response, Evaluation Type: Evaluation A (Pre-1980)): active; positive

CC1=C(C(C)O)c2cc3nc(cc4[nH]c(cc5[nH]c(cc1n2)c(C)c5CCC(=O)O)c(CCC(=O)O)c4C)C(C(C)O)=C3C (stereo not drawn)
mutagenic call (Species/Cell Type: Human, Assay Type: Sister-chromatid exchange (SCE) in vitro, Assay Code: SC1T, Evaluation Type: Evaluation B (Post-1980)): no conclusion

CC(=O)OC[C@]12CCC(C)=C[C@H]1O[C@@H]1[C@H](O)[C@@H](OC(C)=O)[C@@]2(C)[C@]12CO2
mutagenic call [6]: inactive; negative | mutagenic call [7]: no conclusion

CC[N+]([O-])(CC)CCNc1ccc(C)c2sc3ccccc3c(=O)c12
mutagenic call [7]: no conclusion

CCCCOc1ccc(CC(=O)NOC(C)=O)cc1
mutagenic call [8]: active; positive

FC(F)(Cl)Cl
mutagenic call (Species/Cell Type: Tradescantia species, Assay Type: Gene mutation, Assay Code: TRM-, Evaluation Type: Evaluation A (Pre-1980)): inactive; negative

O=C(O)CNc1ccc(O)cc1
mutagenic call (Species/Cell Type: Allium cepa, Assay Type: Chromosome aberrations, Assay Code: ALC+, Evaluation Type: Evaluation A (Pre-1980)): active; positive

NC(=O)c1cccnc1
mutagenic call [3]: active; positive | mutagenic call [8]: active; positive

CSc1ccc2c(c1)N(CCC1CCCCN1C)c1ccccc1S2 (stereo not drawn)
mutagenic call [9]: active; positive | mutagenic call (Species/Cell Type: Drosophila melanogaster, Sex: Male, Assay Type: Heritable translocation test, chromosome aberrations, Assay Code: DHT+, Evaluation Type: Evaluation A (Pre-1980)): active; positive | mutagenic call [10]: no conclusion

ClCc1c2ccccc2c(Cl)c2ccccc12
mutagenic call [5]: active; positive

Cc1cc2c(ccc3ccccc32)c2c1C(=O)CC2
mutagenic call [7]: no conclusion

CN(N=O)C(C)(C)C
mutagenic call (Species/Cell Type: Chinese hamster lung (V79) cells, Assay Type: Forward gene mutation at the HPRT or ouabain locus, Assay Code: V79-, Evaluation Type: Evaluation A (Pre-1980)): inactive; negative

CCN(CC)CCn1nc2c3c(c(C)ccc31)Sc1ccccc1-2
mutagenic call [9]: active; positive | mutagenic call (Species/Cell Type: Mouse lymphoma (L5178Y) cells, Assay Type: Forward gene mutation at the thymidine kinase (TK) locus, chromosome aberrations, Assay Code: L51+, Evaluation Type: Evaluation A (Pre-1980)): active; positive | mutagenic call (Species/Cell Type: Neurospora crassa, Assay Type: Forward gene mutation, Assay Code: NEF+, Evaluation Type: Evaluation A (Pre-1980)): active; positive

O[C@H]1C=Cc2cc3c4ccccc4c4ccccc4c3cc2[C@@H]1O
mutagenic call [11]: active; positive

CNC(=O)Nc1nc(-c2ccccc2)cs1
mutagenic call (Species/Cell Type: Salmonella typhimurium, Serratia marcesens, Assay Type: Forward and reverse gene mutation, host-mediated assay, Assay Code: HM2+, Evaluation Type: Evaluation A (Pre-1980)): active; positive

COc1cc2ccc(=O)oc2cc1O
mutagenic call [12]: active; positive

C/[N+]([O-])=N/CO
mutagenic call [1]: active; positive | mutagenic call [9]: active; positive | call [4]: active; positive | mutagenic call (Species/Cell Type: Salmonella typhimurium, Assay Type: Forward and reverse gene mutation, body fluid assay, Assay Code: BFU+, Evaluation Type: Evaluation A (Pre-1980)): active; positive | mutagenic call (Species/Cell Type: Syrian hamster embryo (SHE) cells, Assay Type: Cell transformation, clonal assay, Assay Code: CTC+, Evaluation Type: Evaluation A (Pre-1980)): active; positive

CCOP(=S)(OCC)Oc1ccc([N+](=O)[O-])cc1
mutagenic call [12]: active; positive | mutagenic call (Species/Cell Type: Bacillus subtilis (H17 vs M45), Assay Type: Rec-assay, spot test, DNA effects (bacterial DNA repair), Assay Code: REWT, Evaluation Type: Evaluation A (Pre-1980)): no conclusion | mutagenic call [2]: no conclusion | mutagenic call (Species/Cell Type: Escherichia coli WP2 UVRA, Assay Type: Tryptophan reverse gene mutation, Assay Code: WPU-*, Activation: With metabolic activation, Evaluation Type: Evaluation A (Pre-1980)): inactive; negative | mutagenic call (Species/Cell Type: Escherichia coli polA (W3119 vs P3478), Assay Type: Rec-assay, DNA effects (bacterial DNA repair), Assay Code: RE1T, Evaluation Type: Evaluation A (Pre-1980)): no conclusion | mutagenic call (Species/Cell Type: Human diploid fibroblasts, Assay Type: Unscheduled DNA synthesis (UDS) in vitro, DNA effects, Assay Code: UDH-, Evaluation Type: Evaluation A (Pre-1980)): inactive; negative | mutagenic call (Species/Cell Type: Human lymphocytes, Assay Type: Sister-chromatid exchange (SCE) in vitro, Assay Code: SCL+D, Dose Response: With dose response, Evaluation Type: Evaluation B (Post-1980)): active; positive | mutagenic call (Species/Cell Type: Human, Assay Type: Sister-chromatid exchange (SCE) in vitro, Assay Code: SC1+D, Dose Response: With dose response, Evaluation Type: Evaluation B (Post-1980)): active; positive | mutagenic call [11]: active; positive | mutagenic call [6]: inactive; negative | mutagenic call [7]: no conclusion

Nc1nc2c(ncn2[C@H]2C[C@H](O)[C@@H](CO)O2)c(=O)[nH]1
mutagenic call (Species/Cell Type: Glycine max (soybean), Assay Type: Gene mutation, Assay Code: GLM-, Evaluation Type: Evaluation A (Pre-1980)): inactive; negative

NCl
mutagenic call [10]: no conclusion

C/C(O)=C1/C(=O)[C@@H]2[C@H]3c4c[nH]c5cccc(c45)C[C@H]3C(C)(C)N2C1=O
mutagenic call [7]: no conclusion

O=NN1CCC(=O)CC1
mutagenic call [2]: no conclusion | mutagenic call (Species/Cell Type: Salmonella typhimurium (one or more of the five standard strains: TA98, TA100, TA1535, TA1537, and TA1538), Assay Type: Histidine reverse gene mutation, Ames assay, Assay Code: SAL+*, Activation: With metabolic activation, Evaluation Type: Evaluation A (Pre-1980)): active; positive

C=CCCCCCC=CCC#CC#CC=CC
mutagenic call (Species/Cell Type: Nonhuman, Assay Type: Sister-chromatid exchange (SCE) in vitro, Assay Code: SC2T, Evaluation Type: Evaluation B (Post-1980)): no conclusion

Clc1cc(N2CC2)nc(N2CC2)n1
mutagenic call (Species/Cell Type: Aspergillus nidulans, Assay Type: Forward gene mutation, Assay Code: ASF+, Evaluation Type: Evaluation A (Pre-1980)): active; positive

O=NN1CCC(=O)NC1=O
mutagenic call [5]: active; positive

CC(=O)O[C@H]1C[C@@H]2CC[C@@H]3[C@H](CC[C@@]4(C)[C@H]3C[C@H]([N+]3(C)CCCCC3)[C@@H]4OC(C)=O)[C@@]2(C)C[C@@H]1[N+]1(C)CCCCC1
mutagenic call [7]: no conclusion

CC(=O)CCCCn1c(=O)c2c(ncn2C)n(C)c1=O
mutagenic call (Species/Cell Type: Human, Sex: Male, Assay Type: Sperm morphology, Assay Code: SPHT, Evaluation Type: Evaluation A (Pre-1980)): no conclusion

O=[N+]([O-])c1ccc(N2CCN(CCO)CC2)c2c1no[n+]2[O-]
mutagenic call [5]: active; positive

CC(=O)Nc1nc(/C=C/c2ccc([N+](=O)[O-])o2)cs1
mutagenic call [5]: active; positive

[Cl][Nb]([Cl])([Cl])([Cl])[Cl]
mutagenic call (Species/Cell Type: Bacillus subtilis (H17 vs M45), Assay Type: Rec-assay, spot test, DNA effects (bacterial DNA repair), Assay Code: REW-, Evaluation Type: Evaluation A (Pre-1980)): inactive; negative
